US8815503B2, “Compositions and methods for immunostimulatory RNA oligonucleotides” (Rheinische Friedrich-Wilhelms-Universitat Bonn, priority 2005, dated 2014)

What follows are sequences tested on PBMC (assay: 193 ssRNA 4mer-motif library screen: IL-12 (IL-12p40) production in PBMC of six donors, poly-L-Arg complexation, ELISA at 44 hours, IL-12 index and adjusted IL-12 index). Conditions: 193 ssRNA oligonucleotide library; data from six individual donors summarized; ascending order.
Format: cell-based, human
Design: key to Adjusted IL-12 index Mean: IL-12 index (ratio to 9.2sense) minus donor mean, averaged over 6 donors
Outline: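 Human PBMC from six healthy donors were stimulated in duplicate with poly-L-arginine-complexed ssRNA oligonucleotides, and IL-12p40 in supernatant was measured by ELISA at 44 h. Each value was divided by the 9.2sense control on the same plate (IL-12 index), then the donor's mean index was subtracted; adjusted indices are means ± SEM over donors.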
With “AAAAAAAGCCUAAAAAAAA (RNA, backbone not given here) [ANP-Oligo 115]” the “Adjusted IL-12 index Mean” value was 0.15. In the case of “AAAAAAAGCGCAAAAAAAA (RNA, backbone not given here) [ANP-Oligo 116]”, the “Adjusted IL-12 index Mean” value is reported as −0.58. In the case of “AAAAAAAGCGGAAAAAAAA (RNA, backbone not given here) [ANP-Oligo 117]”, the “Adjusted IL-12 index Mean” value is reported as −0.63. With “AAAAAAAGCGUAAAAAAAA (RNA, backbone not given here) [ANP-Oligo 118]” the “Adjusted IL-12 index Mean” value was 0.1. “AAAAAAAGCUCAAAAAAAA (RNA, backbone not given here) [ANP-Oligo 119]” was tested, and the “Adjusted IL-12 index Mean” value was −0.48. In the case of “AAAAAAAGCUGAAAAAAAA (RNA, backbone not given here) [ANP-Oligo 120]”, the “Adjusted IL-12 index Mean” value is reported as −0.38. With “AAAAAAAGCUUAAAAAAAA (RNA, backbone not given here) [ANP-Oligo 121]” the “Adjusted IL-12 index Mean” value was 0.24. For “AAAAAAAGGACAAAAAAAA (RNA, backbone not given here) [ANP-Oligo 122]”, the “Adjusted IL-12 index Mean” value was −0.43. With “AAAAAAAGGAGAAAAAAAA (RNA, backbone not given here) [ANP-Oligo 123]” the “Adjusted IL-12 index Mean” value was −0.51. With “AAAAAAAGGAUAAAAAAAA (RNA, backbone not given here) [ANP-Oligo 124]” the “Adjusted IL-12 index Mean” value was 0.63. For “AAAAAAAGGCCAAAAAAAA (RNA, backbone not given here) [ANP-Oligo 125]”, the “Adjusted IL-12 index Mean” value was −0.54. For “AAAAAAAGGCGAAAAAAAA (RNA, backbone not given here) [ANP-Oligo 126]”, the “Adjusted IL-12 index Mean” value was −0.54. In the case of “AAAAAAAGGCUAAAAAAAA (RNA, backbone not given here) [ANP-Oligo 127]”, the “Adjusted IL-12 index Mean” value is reported as 0.11. “AAAAAAAGGGCAAAAAAAA (RNA, backbone not given here) [ANP-Oligo 128]” was tested, and the “Adjusted IL-12 index Mean” value was −0.64. For “AAAAAAAGGGGAAAAAAAA (RNA, backbone not given here) [ANP-Oligo 129]”, the “Adjusted IL-12 index Mean” value was −0.51. For “AAAAAAAGGGUAAAAAAAA (RNA, backbone not given here) [ANP-Oligo 130]”, the “Adjusted IL-12 index Mean” value was −0.44. In the case of “AAAAAAAGGUCAAAAAAAA (RNA, backbone not given here) [ANP-Oligo 131]”, the “Adjusted IL-12 index Mean” value is reported as 0.12. For “AAAAAAAGGUGAAAAAAAA (RNA, backbone not given here) [ANP-Oligo 132]”, the “Adjusted IL-12 index Mean” value was 0.47. With “AAAAAAAGGUUAAAAAAAA (RNA, backbone not given here) [ANP-Oligo 133]” the “Adjusted IL-12 index Mean” value was 1.51. In the case of “AAAAAAAGUACAAAAAAAA (RNA, backbone not given here) [ANP-Oligo 134]”, the “Adjusted IL-12 index Mean” value is reported as 0.42. With “AAAAAAAGUAGAAAAAAAA (RNA, backbone not given here) [ANP-Oligo 135]” the “Adjusted IL-12 index Mean” value was 0.67. For “AAAAAAAGUAUAAAAAAAA (RNA, backbone not given here) [ANP-Oligo 136]”, the “Adjusted IL-12 index Mean” value was 1.04. For “AAAAAAAGUCCAAAAAAAA (RNA, backbone not given here) [ANP-Oligo 137]”, the “Adjusted IL-12 index Mean” value was −0.27. In the case of “AAAAAAAGUCGAAAAAAAA (RNA, backbone not given here) [ANP-Oligo 138]”, the “Adjusted IL-12 index Mean” value is reported as 0.02. “AAAAAAAGUCUAAAAAAAA (RNA, backbone not given here) [ANP-Oligo 139]” was tested, and the “Adjusted IL-12 index Mean” value was 0.05. For “AAAAAAAGUGCAAAAAAAA (RNA, backbone not given here) [ANP-Oligo 140]”, the “Adjusted IL-12 index Mean” value was 0.99. In the case of “AAAAAAAGUGGAAAAAAAA (RNA, backbone not given here) [ANP-Oligo 141]”, the “Adjusted IL-12 index Mean” value is reported as 0.5. For “AAAAAAAGUGUAAAAAAAA (RNA, backbone not given here) [ANP-Oligo 142]”, the “Adjusted IL-12 index Mean” value was 1.23. In the case of “AAAAAAAGUUCAAAAAAAA (RNA, backbone not given here) [ANP-Oligo 143]”, the “Adjusted IL-12 index Mean” value is reported as 0.56. In the case of “AAAAAAAGUUGAAAAAAAA (RNA, backbone not given here) [ANP-Oligo 144]”, the “Adjusted IL-12 index Mean” value is reported as 4.39. “AAAAAAAGUUUAAAAAAAA (RNA, backbone not given here) [ANP-Oligo 145]” was tested, and the “Adjusted IL-12 index Mean” value was 1.32. “AAAAAAAUAACAAAAAAAA (RNA, backbone not given here) [ANP-Oligo 146]” was tested, and the “Adjusted IL-12 index Mean” value was −0.16. “AAAAAAAUAAGAAAAAAAA (RNA, backbone not given here) [ANP-Oligo 147]” was tested, and the “Adjusted IL-12 index Mean” value was 0.27. “AAAAAAAUAAUAAAAAAAA (RNA, backbone not given here) [ANP-Oligo 148]” was tested, and the “Adjusted IL-12 index Mean” value was 0.7. In the case of “AAAAAAAUACCAAAAAAAA (RNA, backbone not given here) [ANP-Oligo 149]”, the “Adjusted IL-12 index Mean” value is reported as 0.27. For “AAAAAAAUACGAAAAAAAA (RNA, backbone not given here) [ANP-Oligo 150]”, the “Adjusted IL-12 index Mean” value was −0.3. For “AAAAAAAUACUAAAAAAAA (RNA, backbone not given here) [ANP-Oligo 151]”, the “Adjusted IL-12 index Mean” value was 0.3. In the case of “AAAAAAAUAGCAAAAAAAA (RNA, backbone not given here) [ANP-Oligo 152]”, the “Adjusted IL-12 index Mean” value is reported as 0.35. With “AAAAAAAUAGGAAAAAAAA (RNA, backbone not given here) [ANP-Oligo 153]” the “Adjusted IL-12 index Mean” value was 0.42. For “AAAAAAAUAGUAAAAAAAA (RNA, backbone not given here) [ANP-Oligo 154]”, the “Adjusted IL-12 index Mean” value was 1.57. For “AAAAAAAUAUCAAAAAAAA (RNA, backbone not given here) [ANP-Oligo 155]”, the “Adjusted IL-12 index Mean” value was 0.33. “AAAAAAAUAUGAAAAAAAA (RNA, backbone not given here) [ANP-Oligo 156]” was tested, and the “Adjusted IL-12 index Mean” value was 0.27. In the case of “AAAAAAAUAUUAAAAAAAA (RNA, backbone not given here) [ANP-Oligo 157]”, the “Adjusted IL-12 index Mean” value is reported as 0.46. “AAAAAAAUCACAAAAAAAA (RNA, backbone not given here) [ANP-Oligo 158]” was tested, and the “Adjusted IL-12 index Mean” value was −0.39. In the case of “AAAAAAAUCAGAAAAAAAA (RNA, backbone not given here) [ANP-Oligo 159]”, the “Adjusted IL-12 index Mean” value is reported as −0.28. With “AAAAAAAUCAUAAAAAAAA (RNA, backbone not given here) [ANP-Oligo 160]” the “Adjusted IL-12 index Mean” value was 0.1. “AAAAAAAUCCCAAAAAAAA (RNA, backbone not given here) [ANP-Oligo 161]” was tested, and the “Adjusted IL-12 index Mean” value was −0.42. For “AAAAAAAUCCGAAAAAAAA (RNA, backbone not given here) [ANP-Oligo 162]”, the “Adjusted IL-12 index Mean” value was −0.5. “AAAAAAAUCCUAAAAAAAA (RNA, backbone not given here) [ANP-Oligo 163]” was tested, and the “Adjusted IL-12 index Mean” value was −0.15. With “AAAAAAAUCGCAAAAAAAA (RNA, backbone not given here) [ANP-Oligo 164]” the “Adjusted IL-12 index Mean” value was −0.1. For “AAAAAAAUCGGAAAAAAAA (RNA, backbone not given here) [ANP-Oligo 165]”, the “Adjusted IL-12 index Mean” value was −0.26. For “AAAAAAAUCGUAAAAAAAA (RNA, backbone not given here) [ANP-Oligo 166]”, the “Adjusted IL-12 index Mean” value was 4.42. “AAAAAAAUCUCAAAAAAAA (RNA, backbone not given here) [ANP-Oligo 167]” was tested, and the “Adjusted IL-12 index Mean” value was 0.37. In the case of “AAAAAAAUCUGAAAAAAAA (RNA, backbone not given here) [ANP-Oligo 168]”, the “Adjusted IL-12 index Mean” value is reported as 0.45.

Same assay, conditions: summarized from all six donors
With “AAAAAAAUAGUAAAAAAAA (RNA, backbone not given here) [ANP-Oligo 154]” the “adjusted IL-12 index” value was 1.57. “AAAAAAAUCGUAAAAAAAA (RNA, backbone not given here) [ANP-Oligo 166]” was tested, and the “adjusted IL-12 index” value was 4.42.
